Biological target: FIH (Homo sapiens, UniProt Q9NWT6)
Test: O-phenylenediamine (OPD) 2OG derivatization turnover assay (remaining 2OG in FIH hydroxylation system)
Format: biochemical
Set-up: Concentration of remaining 2OG: unit: µM
Description: To explore whether the covalent inhibitor can effectively and sustainably prevent the hydroxylation process catalyzed by FIH, the inhibitory activities against FIH were evaluated using the fluorescent O-phenylenediamine (OPD) 2OG derivatization turnover assay (Figure S9).
Figure S9. Schematic of the O-phenylenediamine (OPD) fluorescent derivative assay6. The assay monitors depletion of 2OG.
(1 picture or pasted object on this page, not shown here) […]
pET28a vectors encoding for full-length FIH with an N-terminal His6 tag or for FIH (K106A) with an N-terminal His6 tag were purchased from Nanjing Zoonbio Biotechnology. Both the FIHWT and FIHK106A protein were expressed from the respective plasmid in Escherichia coli BL21 at 20 °C for 16 h. E. coli cells were lysed and the lysate were clarified by centrifugation. His6-tagged FIHWT or FIHK106A was purified on a HisTrap affinity column (GE Healthcare) by elution with an imidazole gradient. The final purified proteins were stored in PBS buffer. […]
Ki = I50 / [1 + ([L]50 + [P]0)/Kd] […]
3.2 O-Phenylenediamine (OPD) fluorescent derivative assay
Assays were carried out by mixing 1 mM DTT, 0.6 mg/mL of catalase, 200 μM 2-OG, 50 mM Hepes, 200 μM HIF-1α (788-807), and inhibitors at pH 7.0 to a final volume of 44 μL and incubated at 37 °C for 5 min. At the same time, FIH enzyme and iron (prepared as 200 mM stock in 20 mM HCl and diluted with water) were mixed at room temperature for 3 min. […] The reaction was stopped by the addition of 100 μL of 0.5 M HCl. After adding 50 μL of 10 mg/mL OPD in 0.5 M HCl and heating at 95 °C for 10 min, the derivatization was achieved. Then, 50 μL of the mixture centrifugated for 5 min was made basic by adding 30 μL of 1.25 M NaOH, and then fluorescence was detected by SPARK Multi-Mode Microplate Reader (Tecan). […]
Crystals were cryo -protected using mother liquor supplemented with 25%v/v glycerol before manual loop cryo -cooling in liquid N2.
Data for ligand -bound protein complexes were from single crystals at 100 K using Diamond Light Source (UK) beamlines. The FIH crystal structures were determined by molecular replacement (MR) using the AutoMR (PHASER) subroutine in PHENIX (version 1.18.2) based on the PDB ID: 1H2K crystal structure .

Chain of FIH (Q9NWT6 whole entry): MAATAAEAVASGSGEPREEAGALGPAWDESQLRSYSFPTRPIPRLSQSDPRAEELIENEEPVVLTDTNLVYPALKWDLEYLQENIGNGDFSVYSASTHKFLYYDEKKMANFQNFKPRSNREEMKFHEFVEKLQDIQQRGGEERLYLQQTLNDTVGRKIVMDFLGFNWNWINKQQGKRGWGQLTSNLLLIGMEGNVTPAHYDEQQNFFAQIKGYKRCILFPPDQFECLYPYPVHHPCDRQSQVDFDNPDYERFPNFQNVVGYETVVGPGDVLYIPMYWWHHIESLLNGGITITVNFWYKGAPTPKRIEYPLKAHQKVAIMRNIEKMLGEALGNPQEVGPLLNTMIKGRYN

Concentration of remaining 2OG (inhibitor 0.14 μM, incubation 0 min, 200 μM 2-OG at start): 200.0
Concentration of remaining 2OG (inhibitor 0.14 μM, incubation 15 min): 187.5
Concentration of remaining 2OG (inhibitor 0.14 μM, incubation 30 min): 184.6
Concentration of remaining 2OG (inhibitor 0.14 μM, incubation 1 h): 174.8
Concentration of remaining 2OG (inhibitor 0.14 μM, incubation 4 h): 163.1
Concentration of remaining 2OG (inhibitor 0.41 μM, incubation 0 min, 200 μM 2-OG at start): 200.0
Concentration of remaining 2OG (inhibitor 0.41 μM, incubation 15 min): 189.1
Concentration of remaining 2OG (inhibitor 0.41 μM, incubation 30 min): 188.8
Concentration of remaining 2OG (inhibitor 0.41 μM, incubation 1 h): 184.6
Concentration of remaining 2OG (inhibitor 0.41 μM, incubation 4 h): 171.6
Concentration of remaining 2OG (inhibitor 1.23 μM, incubation 0 min, 200 μM 2-OG at start): 200.0
Concentration of remaining 2OG (inhibitor 1.23 μM, incubation 15 min): 191.6
Concentration of remaining 2OG (inhibitor 1.23 μM, incubation 30 min): 190.6
Concentration of remaining 2OG (inhibitor 1.23 μM, incubation 1 h): 187.9
Concentration of remaining 2OG (inhibitor 1.23 μM, incubation 4 h): 182.8
Concentration of remaining 2OG (inhibitor 3.70 μM, incubation 0 min, 200 μM 2-OG at start): 200.0
Concentration of remaining 2OG (inhibitor 3.70 μM, incubation 15 min): 194.0
Concentration of remaining 2OG (inhibitor 3.70 μM, incubation 30 min): 193.5
Concentration of remaining 2OG (inhibitor 3.70 μM, incubation 1 h): 189.6
Concentration of remaining 2OG (inhibitor 3.70 μM, incubation 4 h): 185.3
Concentration of remaining 2OG (inhibitor 11.1 μM, incubation 0 min, 200 μM 2-OG at start): 200.0
Concentration of remaining 2OG (inhibitor 11.1 μM, incubation 15 min): 199.7
Concentration of remaining 2OG (inhibitor 11.1 μM, incubation 30 min): 198.7
Concentration of remaining 2OG (inhibitor 11.1 μM, incubation 1 h): 197.8
Concentration of remaining 2OG (inhibitor 11.1 μM, incubation 4 h): 197.2
Concentration of remaining 2OG (inhibitor 33.3 μM, incubation 0 min, 200 μM 2-OG at start): 200.0
Concentration of remaining 2OG (inhibitor 33.3 μM, incubation 15 min): 200.8
Concentration of remaining 2OG (inhibitor 33.3 μM, incubation 30 min): 198.7
Concentration of remaining 2OG (inhibitor 33.3 μM, incubation 1 h): 197.6
Concentration of remaining 2OG (inhibitor 33.3 μM, incubation 4 h): 197.3
Concentration of remaining 2OG (inhibitor 100 μM, incubation 0 min, 200 μM 2-OG at start): 200.0
Concentration of remaining 2OG (inhibitor 100 μM, incubation 15 min): 200.1
Concentration of remaining 2OG (inhibitor 100 μM, incubation 30 min): 199.2
Concentration of remaining 2OG (inhibitor 100 μM, incubation 1 h): 198.5
Concentration of remaining 2OG (inhibitor 100 μM, incubation 4 h): 198.3
Concentration of remaining 2OG (inhibitor 300 μM, incubation 0 min, 200 μM 2-OG at start): 200.0
Concentration of remaining 2OG (inhibitor 300 μM, incubation 15 min): 201.4
Concentration of remaining 2OG (inhibitor 300 μM, incubation 30 min): 199.5
Concentration of remaining 2OG (inhibitor 300 μM, incubation 1 h): 199.2
Concentration of remaining 2OG (inhibitor 300 μM, incubation 4 h): 198.6
SMILES: O=C(O)CNC(=O)c1ncc(-c2cc(-c3ccc(CO)c([N+](=O)[O-])c3)no2)cc1O [NBA-ZG-2291]
Inhibition of FIH hydroxylation activity on the HIF peptide (2OG consumption) (compared to ZG-2291): more potent and sustained inhibition of FIH hydroxylation activity
